Assay results from patent US12338256B2, “Aza-tetracyclic oxazepine compounds and uses thereof” (Genentech, Inc., priority 2022, dated 2025).
pIC50: −log10 of the molar value. Read-outs that look alike come from different tables or passages of the source.

Tests used:
[1] = system: HPAC (homozygous mutant KRAS G12D human pancreatic cell line); test: KRAS 3D-Cell Proliferation Assay, HPAC (Example 503); assay type: cell-based; conditions: HPAC 3D culture, 7 days, CellTiter-Glo 3D, read-out: Prolif HPAC 3D ATP IC50
Procedure: (§1) Example 503: KRAS 3D-Cell Proliferation Assays. Cellular potencies of compounds are assessed by evaluating inhibition of proliferation in 3D cultures of homozygous mutant KRAS G12D human pancreatic cell lines (AsPC-1 and HPAC) as compared to a KRAS wild type human lung adenocarcinoma cell line (PC-9 and/or H1975). Cells are seeded into 384-well black round-bottom, ultra-low attachment assay plates in 50 uL cell growth medium (RPMI-1640 with 10% fetal bovine serum and 2 mM L-glutamine). After overnight incubation at 37° C. and 5% CO2, compounds solubilized in DMSO are added as dilution series to the wells in a total volume of 150 nL (0.3% DMSO final). The cells are incubated for 7 days at 37° C. and 5% CO2. Cell proliferation is quantitated by addition of 40 uL/well of CellTiter-GloÒ 3D (Promega), and the well contents are mixed 20× at high speed using liquid handling automation workstation (Bravo with 384-well head) and centrifuged at 1500 rpm for 2 minutes to eliminate bubbles. This reagent in combination with mechanical disruption releases the cellular ATP to promote activity in a luciferase-based enzyme/substrate chemiluminescent detection system. After a 30-minute incubation under ambient conditions with shaking and an additional 10 minutes without shaking, the luminescence is read on a plate reader (e.g., EnVision [PerkinElmer]). The results are normalized to percent inhibition based on the following control samples: DMSO (0% inhibition) and 1 μM staurosporine (100% inhibition). The normalized luminescence results are plotted against compound concentration, and the data are fit to a 4-parameter Hill equation to determine the IC50 values.

[2] = system: H1975 (KRAS wild type human lung adenocarcinoma cell line); test: KRAS 3D-Cell Proliferation Assay, H1975 (Example 503); assay type: cell-based; conditions: H1975 3D culture, 7 days, CellTiter-Glo 3D, read-out: Prolif H1975 3D ATP IC50
Procedure: as §1

Row | SMILES | pIC50 ([1]; Homo sapiens, HPAC, 168 h) | pIC50 ([2]; Homo sapiens, NCI-H1975, 168 h) | pIC50 [1] | pIC50 [2]
1 | C[C@@H]1Oc2nc(-c3cc(N)cnc3C(F)(F)F)c(F)c3nc(OC[C@@]45CCCN4C[C@H](F)C5)nc(c23)N2C[C@H]3CC[C@H](N3)[C@@H]12 [Compound 178, 5-((5S,5aS,6S,9R)-1-Fluoro-12-(((2R,7aS)-2-fluorotetrahydro-1H-pyrrolizin-7a(5H)-yl)methoxy)-5-methyl-5a,6,7,8,9,10-hexahydro-5H-4-oxa-3,10a,11,13,14-pentaaza-6,9-methanonaphtho[1,8-ab]heptalene-2-yl)-6-(trifluoromethyl)pyridin-3-amine] | 6.88 | 5.03 | – | –
2 | Cc1nc(N)cc(-c2nc3c4c(nc(OCC5(CN6CC7CCC(C6)O7)CC5)nc4c2F)N2C[C@H]4CC[C@H](N4)[C@H]2[C@H](C)O3)c1C(F)(F)F [Compound 207, 4-((5S,5aS,6S,9R)-12-((1-((8-oxa-3-azabicyclo[3.2.1]octan-3-yl)methyl)cyclopropyl)methoxy)-1-fluoro-5-methyl-5a,6,7,8,9,10-hexahydro-5H-4-oxa-3,10a,11,13,14-pentaaza-6,9-methanonaphtho[1,8-ab]heptalene-2-yl)-6-methyl-5-(trifluoromethyl)pyridin-2-amine] | 8.63 | 5.85 | – | –
3 | Cc1c(F)c(N)cc(-c2nc3c4c(nc(OC[C@@]56CCCN5C[C@H](F)C6)nc4c2F)N2C[C@H]4CC[C@H](N4)C2C(C(F)F)O3)c1C(F)(F)F (single isomer, unassigned) [238 (isomer 2)] | – | – | 5.70 | –
4 | COCC1(F)CCN(CC2(COc3nc4c5c(nc(-c6cc(N)nc(C)c6C(F)(F)F)c(F)c5n3)O[C@@H](C)[C@@H]3[C@@H]5CC[C@H](CN43)N5)CC2)C1 (stereo partly drawn) [Compound 270, 4-((5S,5aS,6S,9R)-1-fluoro-12-((1-((3-fluoro-3-(methoxymethyl)pyrrolidin-1-yl)methyl)cyclopropyl)methoxy)-5-methyl-5a,6,7,8,9,10-hexahydro-5H-4-oxa-3,10a,11,13,14-pentaaza-6,9-methanonaphtho[1,8-ab]heptalen-2-yl)-6-methyl-5-(trifluoromethyl)pyridin-2-amine] | 8.60 | 5.61 | – | –
5 | Cc1nc(N)cc(-c2nc3c4c(nc(OCC5(CN6CC[C@H](F)C6)CC5)nc4c2F)N2C[C@H]4CC[C@H](N4)[C@H]2[C@H](C)O3)c1C(F)(F)F [Compound 283, 4-((5S,5aS,6S,9R)-1-fluoro-12-((1-(((S)-3-fluoropyrrolidin-1-yl)methyl)cyclopropyl)methoxy)-5-methyl-5a,6,7,8,9,10-hexahydro-5H-4-oxa-3,10a,11,13,14-pentaaza-6,9-methanonaphtho[1,8-ab]heptalene-2-yl)-6-methyl-5-(trifluoromethyl)pyridin-2-amine] | 8.80 | 6.24 | – | –
6 | Cc1cc(N)cc(-c2nc3c4c(nc(OC[C@@]56CCCN5CC5(CC5(F)F)C6)nc4c2F)N2C[C@H]4CC[C@H](N4)[C@H]2[C@H](C)O3)c1C(F)(F)F (stereo partly drawn) [Compound 68, 3-((5S,5aS,6S,9R)-12-(((7a′S)-2,2-Difluorodihydro-1′H,3′H-spiro[cyclopropane-1,2′-pyrrolizin]-7a′(5′H)-yl)methoxy)-1-fluoro-5-methyl-5a,6,7,8,9,10-hexahydro-5H-4-oxa-3,10a,11,13,14-pentaaza[6,9]methanonaphtho[1,8-ab]heptalen-2-yl)-5-methyl-4-(trifluoromethyl)aniline] | 9.69 | 6.84 | – | –
7 | Cc1c(F)c(N)cc(-c2nc3c4c(nc(OC[C@]56COC[C@H]5CCN6C)nc4c2F)N2C[C@H]4CC[C@H](N4)[C@H]2[C@H](C)O3)c1C(F)(F)F (single isomer, unassigned) [134 (isomer 1)] | 8.07 | 5.59 | – | –
8 | C[C@@H]1Oc2nc(-c3c(C#N)c(N)c(F)c(F)c3C(F)(F)F)c(F)c3nc(OC[C@@]45CCCN4C[C@H](F)C5)nc(c23)N2C[C@H]3CC[C@H](N3)[C@@H]12 [Compound 107, 2-Amino-3,4-difluoro-6-((5S,5aS,6S,9R)-1-fluoro-12-(((2R,7aS)-2-fluorotetrahydro-1H-pyrrolizin-7a(5H)-yl)methoxy)-5-methyl-5a,6,7,8,9,10-hexahydro-5H-4-oxa-3,10a,11,13,14-pentaaza-6,9-methanonaphtho[1,8-ab]heptalen-2-yl)-5-(trifluoromethyl)benzonitrile] | 7.36 | 5.31 | – | –
9 | Cc1c(F)c(N)cc(-c2nc3c4c(nc(OCC5CC6COCCN65)nc4c2F)N2C[C@H]4CC[C@H](N4)[C@H]2[C@H](C)O3)c1C(F)(F)F (mixture of isomers) [159 (mixture), 5-((5S,5aS,6S,9R)-12-((4-Oxa-1-azabicyclo[4.2.0]octan-8-yl)methoxy)-1-fluoro-5-methyl-5a,6,7,8,9,10-hexahydro-5H-4-oxa-3,10a,11,13,14-pentaaza-6,9-methanonaphtho[1,8-ab]heptalen-2-yl)-2-fluoro-3-methyl-4-(trifluoromethyl)aniline] | 7.75 | 5.43 | – | –
10 | C[C@@H]1Oc2nc(-c3cc(O)cc4ccc(F)c(F)c34)c(F)c3nc(OC[C@@]45CCCN4C[C@H](F)C5)nc(c23)N2C[C@H]3CC[C@H](N3)[C@@H]12 [Compound 82, 5,6-Difluoro-4-((5S,5aS,6S,9R)-1-fluoro-12-(((2R,7aS)-2-fluorotetrahydro-1H-pyrrolizin-7a(5H)-yl)methoxy)-5-methyl-5a,6,7,8,9,10-hexahydro-5H-4-oxa-3,10a,11,13,14-pentaaza-6,9-methanonaphtho[1,8-ab]heptalen-2-yl)naphthalen-2-ol] | 4.70 | 4.70 | – | –
11 | C[C@@H]1Oc2nc(-c3cc(N)ccc3C(C)(C)C)c(F)c3nc(OC[C@@]45CCCN4C[C@H](F)C5)nc(c23)N2C[C@H]3CC[C@H](N3)[C@@H]12 [Compound 117, 4-(tert-butyl)-3-((5S,5aS,6S,9R)-1-fluoro-12-(((2R,7aS)-2-fluorotetrahydro-1H-pyrrolizin-7a(5H)-yl)methoxy)-5-methyl-5a,6,7,8,9,10-hexahydro-5H-4-oxa-3,10a,11,13,14-pentaaza-6,9-methanonaphtho[1,8-ab]heptalen-2-yl)aniline] | 6.83 | 5.32 | – | –
12 | Cc1c(F)c(N)cc(-c2nc3c4c(nc(OCC5CC6COCCN65)nc4c2F)N2C[C@H]4CC[C@H](N4)[C@H]2[C@H](C)O3)c1C(F)(F)F (single isomer, unassigned) [159 (diast. 1)] | 7.43 | – | – | –
13 | Cc1nc(N)c(Cl)c(-c2nc3c4c(nc(OC[C@@]56CCCN5C[C@H](F)C6)nc4c2F)N2C[C@H]4CC[C@H](N4)[C@H]2[C@H](C)O3)c1C(F)(F)F [Compound 197, 3-Chloro-4-((5S,5aS,6S,9R)-1-fluoro-12-(((2R,7aS)-2-fluorotetrahydro-1H-pyrrolizin-7a(5H)-yl)methoxy)-5-methyl-5a,6,7,8,9,10-hexahydro-5H-4-oxa-3,10a,11,13,14-pentaaza-6,9-methanonaphtho[1,8-ab]heptalen-2-yl)-6-methyl-5-(trifluoromethyl)pyridin-2-amine] | 8.01 | 6.33 | – | –
14 | Cc1c(F)c(N)cc(-c2nc3c4c(nc(OCC56CCCN5CCN(C)C6=O)nc4c2F)N2C[C@H]4CC[C@H](N4)[C@H]2[C@H](C)O3)c1C(F)(F)F (single isomer, unassigned) [137 (isomer 2)] | – | – | – | 4.70
15 | C[C@@H]1Oc2nc(-c3cc(N)c(F)cc3[C@H](C)C(F)F)c(F)c3nc(OC[C@@]45CCCN4C[C@H](F)C5)nc(c23)N2C[C@H]3CC[C@H](N3)[C@@H]12 (single isomer, unassigned) [181 (isomer 1)] | – | 4.91 | – | –
16 | Cc1c(F)c(N)cc(-c2nc3c4c(nc(OC[C@]5(CN6C[C@H]7C[C@@H]6CO7)CC5(F)F)nc4c2F)N2C[C@H]4CC[C@H](N4)[C@H]2[C@H](C)O3)c1C(F)(F)F (single isomer, unassigned) [166 a] | – | – | 8.84 | –
17 | Cc1c(F)c(N)cc(-c2nc3c4c(nc(OCC5CCC6CN(C)C(=O)CN56)nc4c2F)N2CC4CCC(N4)C2C(C)O3)c1C(F)(F)F (single isomer, unassigned) [131 (isomer 4)] | – | 5.17 | – | –
18 | Cc1c(F)c(N)cc(-c2nc3c4c(nc(OCC56CCCN5CC(F)C6F)nc4c2F)N2CC4CCC(N4)C2C(C)O3)c1C(F)(F)F (single isomer, unassigned) [143 (isomer 3)] | 8.32 | – | – | –
19 | Cc1nc(N)cc(-c2nc3c4c(nc(OCC5N(C)CC56CC6(F)F)nc4c2F)N2CC4CCC(N4)C2C(C(F)(F)F)O3)c1C(F)(F)F (single isomer, unassigned) [262 (isomer 2)] | 6.91 | – | – | –
20 | Cc1c(F)c(N)cc(-c2nc3c4c(nc(OCC5COCC6CCCN65)nc4c2F)N2CC4CCC(N4)C2C(C)O3)c1C(F)(F)F (single isomer, unassigned) [121 (isomer 1)] | 7.90 | – | – | –
